US20260240810A1, “COMPOSITIONS AND METHODS FOR REDUCING ADVERSE SIDE EFFECTS IN CANCER TREATMENT” (priority 2022, published 2026)

Assays:
hemoglobin = target: T1, hemoglobin (Homo sapiens, UniProt P68871); experiment: 14C-RRx-001 binding to hemoglobin in blood; details: blood of rats, dogs, monkeys, humans; liquid scintillation counter
T1 construct: blood not pooled from 3 individual male humans; from tissue; host or cells: whole blood of 3 individual male humans
Experimental: ^14C-RRx-001 (1 μM and 20 μM) was incubated at a temperature of 37° C. for a time period of 30 minutes with blood pooled from 3 male Sprague Dawley rats, 3 male beagle dogs, and 2 male cynomolgus monkeys, and blood not pooled from 3 individual male humans. […] The range of binding to the 3 different human hemoglobin varied from 24% to 34%.

[1] = system: CD2F1 mice, lethal total body irradiation; experiment: Survival after lethal total body irradiation; type: in vivo
Experimental: Mice were treated with vehicle or 10 mg/kg RRx-001 intraperitoneally 24 hours prior to irradiation (9.35 Gy delivered at 0.6 Gy/min).
CD2F1 mice were treated with lethal dose 70/30 whole body irradiation dose of 9.35 Gy at 0.6 Gy/min using a ^60Co source. Twenty-four hours prior to irradiation, all mice were intraperitoneally injected with either 10 mg/kg RRx-001 or the vehicle control (5% dimethyl sulfoxide in sterile water).

[2] = system: severe oral mucositis in patients receiving head and neck chemoradiotherapy; experiment: PREVLAR Phase 2a trial: oral mucositis in patients receiving cisplatin + IMRT; type: in vivo, human; details: for Median SOM duration: all patients, baseline to last day of radiation, 0 days if never SOM; for percent of SOM visits: minimum 65 Gy cumulative radiation; for median duration of SOM: only patients who developed SOM, onset to last visit with SOM
Experimental: Referring to FIG. 1, FIG. 1 is a table 100 showing a trial in which RRx-001 was tested in various groups of patients that were being treated for cancer with a combination of chemotherapy and IMRT. The various groups were divided into “Arms” based on a treatment: • Arm 1. pretreatment with 4 mg RRx-001 2 times per week for 2 weeks followed by 40 mg/m^2 each week or 100 mg/m^2 once every 3 weeks cisplatin+IMRT. • Arm 2. pretreatment with 4 mg RRx-001 2 times per week for 2 weeks followed by cotreatment with 4 mg RRx-001 2 times once on week 2 and once on week 5+40 mg/m^2 each week or 100 mg/m^2 once every 3 weeks cisplatin+IMRT. • Arm 3. pretreatment with 4 mg RRx-001 2 times per week for 2 weeks followed by cotreatment with 4 mg RRx-001 […]+40 mg/m^2 each week or 100 mg/m^2 once every 3 weeks cisplatin+IMRT. • Arm 4. standard of care 40 mg/m^2 each week or 100 mg/m^2 once every 3 weeks cisplatin+IMRT without RRx-001.
Accordingly, patients in Arm 1 of the study were administered a pretreatment of RRx-001 over a 2-week period. No RRx-001 was administered to the patients following the pretreatment period. Following the 2-week pretreatment period, the therapeutic agent comprising cisplatin and IMRT was administered to the patients over a 6-week period.
Patients in Arm 2 of the study were likewise administered a pretreatment of RRx-001 over a 2-week period. But RRx-001 was further administered at a low dose concurrently with cisplatin and IMRT over the 6-week period following the pretreatment period.
Arm 4 of the study was the control or standard of care (SOC). No RRx-001 was administered to the patients in Arm 4 of the study and there was no pretreatment period. All patients received the same amounts of cisplatin and IMRT for Arm 1, Arm2, Arm 3, and Arm 4 of the study. Patients in the study had the option to stop or refuse treatment at any time and not all patients finished the entire treatment.
Example 2 is a Phase 2a randomized, multi-institutional (n=13, of which 12 enrolled), open-label/unblinded, controlled trial in which patients were centrally randomized into four groups (“Arms”), with approximately 10 patients per Arm (or group) before the start of CRT, stratified by oropharynx versus oral cavity site. See M. Bonomi, et al. (2023) Int. J. Radiat. Oncol. Biol. Phys. 116(3): p. 551-559.
Study participants were adults (>18 years) with pathologically diagnosed stage III to IVB locally advanced (nonmetastatic) squamous cell carcinoma of the oral cavity or oropharynx that were scheduled to receive definitive or postoperative daily fractionation IMRT of 2.0 Gy to 2.2 Gy for a total dose of 60 Gy to 72 Gy with concomitant cisplatin given as either weekly (40 mg/m^2) or tri-weekly (100 mg/m^2) infusions. Radiation fields included at least 2 oral sites at risk of OM (e.g., buccal mucosa, floor of mouth, lateral/ventral tongue, or soft palate), which were planned to receive a minimum cumulative dose of 55 Gy. […] Patients received a pretreatment evaluation including complete history, dental assessment, physical examination, complete blood count and complete metabolic profile, hematology and biochemistry profiles, optional laryngoscopy, chest computed tomography (CT) or positron emission tomography (PET)/CT, CT, and a magnetic resonance imaging (MRI) or PET/CT of the tumor site and neck nodes.
Arms 1 to 3 received twice weekly infusions of RRx-001, 4 mg/dose after a premedication dose of dexamethasone (10 mg) for the 2 weeks preceding the start of CRT. Patients in Arm 2 received two additional 4 mg doses of RRx-001 after being premedicated with dexamethasone in weeks 2 and 5 of their CRT regimen. Patients in Arm 3 received weekly RRx-001 (4 mg after dexamethasone pre-dosing) during the first 6 weeks of CRT. Treatment was completed on the last day of radiation therapy (LDRT).
The treatment phase commenced 2 weeks before the start of CRT and continued until the LDRT. […]

[3] = 10 mg/kg 24 hours prior to lethal total body irradiation, vs vehicle control
[4] = Arm 1: RRx-001 pretreatment + SOC chemoradiation

T1 sequence (P68871 2-147 limits assumed): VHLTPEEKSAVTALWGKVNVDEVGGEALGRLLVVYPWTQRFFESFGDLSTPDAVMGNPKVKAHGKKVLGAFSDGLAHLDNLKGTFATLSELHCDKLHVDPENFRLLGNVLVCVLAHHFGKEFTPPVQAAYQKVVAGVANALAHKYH
T1 sequence (P69905 2-142 partner limits assumed): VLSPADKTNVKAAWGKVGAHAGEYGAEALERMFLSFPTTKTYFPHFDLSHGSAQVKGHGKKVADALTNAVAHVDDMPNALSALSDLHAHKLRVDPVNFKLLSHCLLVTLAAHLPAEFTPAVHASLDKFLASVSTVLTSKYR

O=C(CBr)N1CC([N+](=O)[O-])([N+](=O)[O-])C1 [RRx-001, 2-bromo-1-(3,3-dinitroazetidin-1-yl) ethan-1-one]
partitioning of radioactivity in blood (hemoglobin): highly partition into red blood cells and covalently bind to hemoglobin | increase in mean survival time [1, 3]: 7 days | increase in survival [1, 3]: 33.4% | Survival over 30 days post-exposure ([1]; 10 mg/kg intraperitoneally 24 hours prior to 9.35 Gy at 0.6 Gy/min): 67% | reduction in the 30-day death risk ([1]; 1 dose of 10 mg/kg 24 hours prior to 9.35 Gy, vs vehicle control): ~33.4% | estimate (averaged across all visits) MMRM probability of SOM ([2]; (pooled) RRx-001 treatment): 15.3% | incidence of SOM (any WHO score ≥3 between baseline to the last day of radiation) ([2]; Arm 1): 83.3% | patients with at least one day of Grade 4 OM between the first and LDRT ([2]; Arm 1): 23.1% | percent of visits with most severe forms (Grade 4) mucositis ([2]; Arm 1): 3.3% | decrease in duration of SOM through 60 Gy vs. Arm 4 ([2]; Arm 1: 4 mg RRx-001 2 times per week for 2 weeks pretreatment, then cisplatin+IMRT): 16 days | average days longer than Arm 4 before onset of SOM from start of chemotherapy [2, 4]: 12 days | decrease in SOM duration following treatment of IMRT compared to Arm 4 [2, 4]: 18 days | Median SOM duration ([2]; Arm 1): 5 days | percent of SOM visits ([2]; Arm 1): 23.6% | median duration of SOM ([2]; Arm 1): 8.5 days | incidence of SOM (any WHO score ≥3 between baseline to the last day of radiation) ([2]; Arm 2): 70% | patients with at least one day of Grade 4 OM between the first and LDRT ([2]; Arm 2): 40% | percent of visits with most severe forms (Grade 4) mucositis ([2]; Arm 2): 12.2% | incidence of grade 4 OM through 60 Gy ([2]; Arm 2: RRx-001 pretreatment + 2 concurrent doses + SOC chemoradiation): 40% | Median SOM duration ([2]; Arm 2): 13.5 days | percent of SOM visits ([2]; Arm 2): 22.2% | median duration of SOM ([2]; Arm 2): 17 days | incidence of SOM (any WHO score ≥3 between baseline to the last day of radiation) ([2]; Arm 3): 76.9% | patients with at least one day of Grade 4 OM between the first and LDRT ([2]; Arm 3): 46.2% | percent of visits with most severe forms (Grade 4) mucositis ([2]; Arm 3): 7.7% | incidence of grade 4 OM through 60 Gy ([2]; Arm 3: RRx-001 pretreatment + 6 concurrent doses + SOC chemoradiation): 46% | Median SOM duration ([2]; Arm 3): 8 days | percent of SOM visits ([2]; Arm 3): 25.7% | median duration of SOM ([2]; Arm 3): 10 days | Odds ratio estimate ([2]; MMRM analysis of SOM, contrast SOC alone / (Pooled RRx-001)): 3.24 | SOM Probability (averaged across all visits) ([2]; MMRM analysis, pooled RRx-001-treated patients): 0.153 | aggregate percent of SOM visits ([2]; active arms, patients with minimum 65 Gy cumulative radiation): 23.9% | incidence of SOM through the short-term follow-up period ([2]; active patients): 80% | SOM incidence by the last dose of radiotherapy (LDRT) ([2]; aggregate active Arms, about 72 Gy): 77.1% | patients exhibiting SOM ([2]; patients who received RRx-001 (treated Arms), cumulative RT dose 45 Gy): 42.9% | patients exhibiting SOM ([2]; treated Arms, 55 Gy): 57.1% | patients exhibiting SOM ([2]; treated Arms, 65 Gy): 71.4%
